The target of the assay is T1, Human BCL-XL protein (N-terminal HiBiT tagged BCL-XL expressed in HT1080 cells) (Homo sapiens, UniProt Q07817).
T1 construct: expressed in transfected cells; host or cells: HT-1080 (ATCC CCL-121), stably transduced with lentivirus pLV-UBC-N-HiBiT-BCL-XL-PGK-puro and selected with puromycin
Nature of the assay: HiBiT Based Degradation Assay. It counts as cell-based. The conditions noted are these: 24 hours incubation; for DC50: BCL-XL degradation, HT1080 cells expressing N-HiBiT-BCL-XL, normalized with DMSO control, geometric mean for multiple data points, read-out: EC50 (24 h); for Ymin (24 h): bottom of BCL-XL degradation curve (remaining HiBiT-BCL-XL signal vs DMSO control), HT1080 cells. Put shortly:
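BCL-XL degradation was read as Nano-Glo HiBiT lytic luminescence relative to DMSO after a 24 h compound treatment of HT1080 cells carrying stably integrated N-HiBiT-BCL-XL. EC50 values come from four-parameter logistic curves, with the hook-curve minimum fixed as bottom, and are geometric means where tested repeatedly.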

Molecules are shown by their SMILES.

T1 sequence (Q07817 whole entry): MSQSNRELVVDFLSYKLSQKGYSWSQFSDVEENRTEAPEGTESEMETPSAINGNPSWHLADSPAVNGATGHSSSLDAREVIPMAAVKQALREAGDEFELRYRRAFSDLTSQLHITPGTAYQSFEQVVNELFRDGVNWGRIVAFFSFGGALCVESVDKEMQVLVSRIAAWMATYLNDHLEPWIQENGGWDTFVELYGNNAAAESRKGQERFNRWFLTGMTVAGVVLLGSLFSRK

For the compound `Cc1c(OCC2CC3(CCN(CC(=O)Nc4ccc5c(C6CCC(=O)NC6=O)nn(C)c5c4)CC3)C2)cccc1-c1ccc(N2CCc3ccnc(C(=O)Nc4nc5ccccc5s4)c3C2)nc1C(=O)O` (stereo not shown) [Compound 134, 6-(8-(benzo[d]thiazol-2-ylcarbamoyl)-3,4-dihydro-2,7-naphthyridin-2(1H)-yl)-3-(3-((7-(2-((3-(2,6-dioxopiperidin-3-yl)-1-methyl-1H-indazol-6-yl)amino)-2-oxoethyl)-7-azaspiro[3.5]nonan-2-yl)methoxy)-2-methylphenyl)picolinic acid], the DC50 lay within 10 to 100 nM and the “Ymin (24 h)” value was “B (30% ≤ Ymin < 50%)”.
In the case of `Cc1cc(OCC2CC3(CCN(CC(=O)Nc4ccc5c(C6CCC(=O)NC6=O)nn(C)c5c4)CC3)C2)ccc1-c1ccc(N2CCc3ccnc(C(=O)Nc4nc5ccccc5s4)c3C2)nc1C(=O)O` (stereo not shown) [Compound 135, 6-[8-(1,3-benzothiazol-2-ylcarbamoyl)-3,4-dihydro-1H-2,7-naphthyridin-2-yl]-3-[4-[[7-[2-[[3-(2,6-dioxo-3-piperidyl)-1-methyl-indazol-6-yl]amino]-2-oxo-ethyl]-7-azaspiro[3.5]nonan-2-yl]methoxy]-2-methyl-phenyl]pyridine-2-carboxylic acid], the DC50 was less than 10 nM and the “Ymin (24 h)” value is “A (Ymin < 30%)”.
For the compound `Cc1cc(OCC2CC3(CCN(CC(=O)Nc4ccc5c(C6CCC(=O)NC6=O)nn(C)c5c4C(F)(F)F)CC3)C2)ccc1-c1ccc(N2CCc3cccc(C(=O)Nc4nc5ccccc5s4)c3C2)nc1C(=O)O` (stereo not shown) [Compound 136], the DC50 is 10 to 100 nM and the “Ymin (24 h)” value was “B (30% ≤ Ymin < 50%)”.
For `Cc1c(OCC2CC3(CCN(CC(=O)Nc4ccc5c(C6CCC(=O)NC6=O)nn(C)c5c4C(F)(F)F)CC3)C2)cccc1-c1ccc(N2CCc3cccc(C(=O)Nc4nc5ccccc5s4)c3C2)nc1C(=O)O` (stereo not shown) [Compound 137] the same measures were 10 to 100 nM and “C (50% ≤ Ymin < 70%)”.
Turning to `Cc1c(OCC2CC3(CCN(CC(=O)Nc4cc5c(cc4C(F)(F)F)c(C4CCC(=O)NC4=O)nn5C)CC3)C2)cccc1-c1ccc(N2CCc3cccc(C(=O)Nc4nc5ccccc5s4)c3C2)nc1C(=O)O` (stereo not shown) [Compound 139], the DC50 was in the range of 1000 to 10000 nM and the “Ymin (24 h)” value is “C (50% ≤ Ymin < 70%)”.
For the compound `Cc1cc(OCCCC2CCN(CC(=O)Nc3ccc4c(C5CCC(=O)NC5=O)nn(C)c4c3)CC2)ccc1-c1ccc(N2CCc3ccnc(C(=O)Nc4nc5ccccc5s4)c3C2)nc1C(=O)O` (stereo not shown) [Compound 141, 6-[8-(1,3-benzothiazol-2-ylcarbamoyl)-3,4-dihydro-1H-2,7-naphthyridin-2-yl]-3-[4-[3-[1-[2-[[3-(2,6-dioxo-3-piperidyl)-1-methyl-indazol-6-yl]amino]-2-oxo-ethyl]-4-piperidyl]propoxy]-2-methyl-phenyl]pyridine-2-carboxylic acid], the DC50 is less than 10 nM and the “Ymin (24 h)” value was “A (Ymin < 30%)”.
For the compound `COc1c(NC(=O)CN2CCC(CCCOc3ccc(-c4ccc(N5CCc6cccc(C(=O)Nc7nc8ccccc8s7)c6C5)nc4C(=O)O)c(C(F)(F)F)c3)CC2)ccc2c(C3CCC(=O)NC3=O)nn(C)c12` (stereo not shown) [Compound 142], the DC50 fell in the range of 10 to 100 nM and the “Ymin (24 h)” value is “A (Ymin < 30%)”.
The like results for `COc1c(NC(=O)CN2CCC3(CC2)CC(COc2cccc(-c4ccc(N5CCc6cccc(C(=O)Nc7nc8ccccc8s7)c6C5)nc4C(=O)O)c2C(F)(F)F)C3)ccc2c(C3CCC(=O)NC3=O)nn(C)c12` (stereo not shown) [Compound 143, 6-(8-(benzo[d]thiazol-2-ylcarbamoyl)-3,4-dihydroisoquinolin-2(1H)-yl)-3-(3-((7-(2-((3-(2,6-dioxopiperidin-3-yl)-7-methoxy-1-methyl-1H-indazol-6-yl)amino)-2-oxoethyl)-7-azaspiro[3.5]nonan-2-yl)methoxy)-2-(trifluoromethyl)phenyl)picolinic acid] were, in that order, 10 to 100 nM and “B (30% ≤ Ymin < 50%)”.
